The target of experiment [1] is T1, 5-HT1A receptor (Rattus norvegicus, UniProt P19327).
T1 construct: Freezed hippocampus dissected out from rats were homogenized; from tissue; host or cells: rat hippocampus, crude synaptosomal membranes
T1 sequence (P19327 1-422): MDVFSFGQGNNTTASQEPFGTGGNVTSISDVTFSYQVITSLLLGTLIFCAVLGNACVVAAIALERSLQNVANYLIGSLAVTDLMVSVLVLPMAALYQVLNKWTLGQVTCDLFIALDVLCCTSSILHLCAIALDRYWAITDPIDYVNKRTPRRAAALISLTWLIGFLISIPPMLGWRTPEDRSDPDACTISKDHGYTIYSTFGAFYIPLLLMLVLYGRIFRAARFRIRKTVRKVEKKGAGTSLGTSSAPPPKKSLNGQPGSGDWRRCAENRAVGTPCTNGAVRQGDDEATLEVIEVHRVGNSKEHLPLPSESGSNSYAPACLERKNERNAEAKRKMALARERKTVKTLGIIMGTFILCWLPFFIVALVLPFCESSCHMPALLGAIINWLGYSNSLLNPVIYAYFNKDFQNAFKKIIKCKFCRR
The experiment is described as follows: Affinity for serotonin 1A (5-HT1A) receptor, 3H-8-OH-DPAT binding test. As to the method: Affinity for serotonin 1A (5-HT1A) receptor [^3 H-8-Hydroxy-2-dipropylaminotetralin (^3 H-8-OH-DPAT)binding test]
Preparation of crude synaptosome fraction and binding assay were conducted in accordance with the method reported in Journal of Neurochemistry, vol 44, page 1685, 1985 by Hall et al. Freezed hippocampus dissected out from rats were homogenized in 40 volumes of ice cold 50 mM Tris-HCl buffer (pH. 7.4) and the suspension was centrifuged at 500× g for 10 minutes at 0° C.
The supernatant was centrifuged at 40,000× g for 20 minutes at 0° C. and the resulting pellet was homogenized in 40 volumes of the above buffer and incubated at 37° C. for 10 minutes. After completion of reaction, the suspension was centrifuged at 40,000× g for 20 minutes at 0° C. The resulting pellet was washed twice by resuspension in 40 volumes of the above buffer and centrifugation, and finally suspended in 60 volumes of ice-cold 50 mM Tris-HCI buffer (pH 7.4) containing 1 mM manganese chloride for use in the next assay.
To the aliquots ([…]) of synaptosome membranes solution were added 50 ml of tritiated 8-OH-DPAT solution at the terminal concentration of 0.2 nM and 50 ml of test compound solution or 50 ml of its medium, and incubated at 37° C. for 10 minutes. Then to the mixture was added 5 ml of ice-cold 50 mM Tris-HCI buffer (pH 7.4) rapidly vacuum-filtered through Whatman^R GF/B filters and washed twice with 5 ml of the same buffer. The radioactivity of the residue remaining on the filters was measured by liquid scintillation counter. Nonspecific binding was determined under the presence of 10^-5 M serotonin (5-HT). 50% Inhibition concentration (IC50) of the test compound was graphically determined.

Experiment [2] deals with PKC. The experiment is described as follows: PKC translocation in hippocampal synaptosomes (Western blot). Type of experiment: cell-based. The conditions noted are these: 15 min at 30° C., control = 100, dose not given. As for the experimental part: PKC translocation in different brain's area
Purified synaptosomes have been obtained following the procedure described by Dunkley (Dunkley P. R., Health J. W:, Harrison S. M., Jarvie P. E., Glenfield P. J. and Rostas J. A. P.
A rapid percolation gradient procedure for isolation of synaptosomes directly from Si fraction: homogeneity and morphology of subcellular fractions. Brain res 441:59-71, 1988).
Synaptosomes purified from cortex, hippocampus were incubated (10 mg/ml) for 15 min at 30° C. in presence of increasing doses of the compounds of the present invention dissolved in tartaric acid (pH 7.0) or of the vehicle alone.
After incubation, purified synaptosomes were collected in cold Krebs buffer containing 10 mM EGTA and then processed according to Shearmann et al (Shearman M. S., Shinomura T., Oda T. and Nishizuka Y. Protein kinase C subspecies in adult rat hippocampal synaptosomes. Activation by diacylglycerol and arachidonic acid. FEBS Lett 279:261-264, 1991).
Synaptosomes have been lysed in this solution for 30 min at 4° C. with stirring. […]
PKC on Western blots was detected with a polyclonal total PKC antibody (Upstate Biotechnology). […] Antigen antibody complexes were detected by enhanced chemiluminescence. Results have been analysed by computer assisted Image analysis and expressed as per cent of PKC translocation in control conditions.
For orientation: In western blotting, separated proteins are transferred to a membrane and probed.

Experiment [3] has as its target T2, D2 receptor (Rattus norvegicus, UniProt P61169).
T2 construct: Freezed corpus striatum dissected out from rats were homogenized; from tissue; host or cells: rat corpus striatum, crude synaptosomal membranes
The experiment is described as follows: Affinity for dopamine 2 (D2) receptor, 3H-Spiperone binding test. The conditions noted are these: rat corpus striatum, 3H-Spiperone 0.2 nM, 37° C. 20 minutes; read-out: D2 affinity expressed as IC50. As to the method: Affinity for dopamine 2 (D2)receptor (^3 H-Spiperone binding test.)
Preparation of crude synaptosome fraction and binding assays were conducted in accordance with the method reported in European Journal of Pharmacology, vol 46, page 377,1977 by I.Creese et al. Freezed corpus striatum dissected out from rats were homogenized in 100 volumes of ice cold 50 mM Tris-HCl buffer (pH.7.7) and the suspension was centrifuged at 500× g for 10 minutes at 0° C.
The supernatant was centrifuged at 50,000× g for 15 minutes at 0° C. and the resulting pellet was homogenized in 100 volumes of the above buffer and then the suspension was centrifuged at 50,000× g for 15 minutes at 0° C. again. The resulting pellet was homogenized in 150 volumes of 50 mM Tris-HCl buffer (PH 7.1) containing 120 mM potassium chloride, 2 mM calcium chloride, 1 mM magnesium chloride, 0,1 ascorbic acid and […] pargyline. The suspension was incubated at 37° C. for 10 minutes and then provided as synaptosome membranes solution for the next assays. To the aliquots (900 m) of synaptosome membranes solution were added 50 ml of H-Spiperone solution at the terminal concentration of 0.2 nM and 50 ml of test compound solution or 50 ml of its medium, and incubated at 37° C. for 20 minutes. After completion of the reaction, the mixture was rapidly vacuum-filtered through Whatman^R GF/B filters. The filters were washed three times with 5 ml of the above buffer, and then the radioactivity of the residue remaining on the filters was measured by liquid scintillation counter. Nonspecific binding was determined under presence of […] of L)-Sulpiride 50% Inhibition concentration (IC50) of the test compound was graphically determined.

Experiment [4] has as its target T3, 5-HT2 receptor (Rattus norvegicus, UniProt P14842).
T3 construct: Freezed cerebral cortex dissected out from rats were homogenized; from tissue; host or cells: rat cerebral cortex, crude synaptosomal membranes
The experiment in a line: Affinity for serotonin 2 (5-HT2) receptor, 3H-Ketanserin binding test. As for the experimental part: Affinity for serotonin 2(5-HT2)receptor (^3 H-Ketanserin binding test).
The supernatant was centrifuged at 40,000× g for 20 minutes at 0° C. and the resulting pellets was homogenized in 30 volumes of ice-cold 50 mM Tris-HCI buffer (pH.7.7) and incubated at 37° C. for 10 minutes. The suspension was centrifuged at 40,000× g for 20 minutes at 0° C. again. The resulting pellet was homogenized in 100 volumes of the above buffer and provided as synaptosome membranes solution for the next assay.
To the aliquots (900 m) of synaptosome membranes solution were added 50 ml solution of ^3 H-Ketanserin solution at the terminal concentration of […] and 50 ml of test compound or its medium, and incubated at 37° C. for 20 minutes. After completion of the reaction, the mixture was rapidly vacuum-filtered through Whatman^R GF/B filters. The filters were washed three times with 5 ml of the above buffer, and then the radioactivity of the residue remaining on the filters was measured by liquid scintillation counter. Non specific binding was determined under the presence of […] of mianserin.

Experiment [5] has as its target D1 receptor. The experiment is described as follows: Affinity for D1 receptor (method not described). It counts as binding. The conditions noted are these: read-out: D1 affinity expressed as IC50.
Where [6] appears, read: rat hippocampus, 3H-8-OH-DPAT 0.2 nM, 37° C. 10 minutes, read-out: 5-HT1A affinity expressed as IC50.

Like-named read-outs stand apart in the source and are kept apart here.

T2 sequence (P61169 whole entry): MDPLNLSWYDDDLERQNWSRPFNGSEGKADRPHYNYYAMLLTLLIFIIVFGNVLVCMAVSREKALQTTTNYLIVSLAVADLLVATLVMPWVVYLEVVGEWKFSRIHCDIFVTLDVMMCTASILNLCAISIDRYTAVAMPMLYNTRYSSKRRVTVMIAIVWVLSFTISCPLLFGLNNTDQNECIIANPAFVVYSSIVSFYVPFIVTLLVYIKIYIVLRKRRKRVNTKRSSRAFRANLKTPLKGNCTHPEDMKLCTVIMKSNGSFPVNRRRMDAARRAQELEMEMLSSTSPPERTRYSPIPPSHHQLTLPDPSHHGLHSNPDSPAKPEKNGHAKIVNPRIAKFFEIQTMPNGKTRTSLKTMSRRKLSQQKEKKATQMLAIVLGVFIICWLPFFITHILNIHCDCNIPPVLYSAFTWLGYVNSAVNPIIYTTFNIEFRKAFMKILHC
T3 sequence (P14842 whole entry): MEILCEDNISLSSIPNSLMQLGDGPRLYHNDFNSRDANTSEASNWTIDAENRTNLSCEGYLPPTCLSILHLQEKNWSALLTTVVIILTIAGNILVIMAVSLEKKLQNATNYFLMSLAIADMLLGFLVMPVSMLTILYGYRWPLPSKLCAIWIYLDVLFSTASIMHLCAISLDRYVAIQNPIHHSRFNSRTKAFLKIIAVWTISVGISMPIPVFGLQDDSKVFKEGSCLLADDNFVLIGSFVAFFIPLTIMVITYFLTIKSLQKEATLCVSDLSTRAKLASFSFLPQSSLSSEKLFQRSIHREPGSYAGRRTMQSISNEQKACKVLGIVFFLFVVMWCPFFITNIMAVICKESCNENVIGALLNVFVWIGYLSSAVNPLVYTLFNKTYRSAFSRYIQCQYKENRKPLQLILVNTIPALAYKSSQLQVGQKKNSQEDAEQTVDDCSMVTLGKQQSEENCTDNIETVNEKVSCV

By IC50 is commonly meant the concentration needed to halve the response being measured. For `CO[C@]12C[C@@H](Cc3nc(-c4cncc(Br)c4)no3)CN(C)[C@@H]1Cc1cn(C)c3cccc2c13` [Example 4, 1,6-Dimethyl-8β-methyl-[3-(5-bromo-pyridin-3-yl)-1,2,4-oxadiazol-5-yl]-10α-methoxy-ergoline], the IC50 amounted to 300 nM in experiment [1] (setting [6]), 2930 nM in experiment [3] and 3400 nM in experiment [4]. Moreover, in experiment [2], the “PKC translocation in hippocampal synaptosomes, expressed as per cent of PKC translocation in control conditions” value is listed as 126 per cent.

Consider `CO[C@]12C[C@@H](Cc3nnc(-c4cncc(Br)c4)o3)CN(C)[C@@H]1Cc1cn(C)c3cccc2c13` [Example 10, 1,6-Dimethyl-8β-methyl-[2-(5-bromo-pyridin-3-yl)-1,3,4-oxadiazol-5-yl]-10α-methoxy-ergoline], for which the IC50 in experiment [1] stood at 11 nM; in experiment [3], 2510 nM; in experiment [4] it was 890 nM.

For the compound `CO[C@]12C[C@@H](Cc3noc(-c4cncc(Br)c4)n3)CN(C)[C@@H]1Cc1cn(C)c3cccc2c13` [Example 2, 1,6-Dimethyl-8β-methyl-[5-(5-bromo-pyridin-3-yl)-1,2,4-oxadiazol-3-yl]-10α-methoxy-ergoline], the results for the IC50 in experiment [1] (setting [6]), in experiment [3] and in experiment [4] were 200 nM, 3640 nM and 2400 nM, respectively.

Consider `CO[C@]12C[C@@H](c3nnc(-c4cncc(Br)c4)o3)CN(C)[C@@H]1Cc1cn(C)c3cccc2c13` [Example 8, 1,6-Dimethyl-8β-[2-(5-bromo-pyridin-3-yl)-1,3,4-oxadiazol-5-yl]-10α-methoxy-ergoline], for which the IC50 in experiment [1] came out at 9 nM; in experiment [5], 2040 nM; in experiment [3], 1950 nM; in experiment [4] it was 27 nM.
